In patent US3937820A, “Insulin composition providing alternatives to immunological resistance” (Hoechst Aktiengesellschaft, priority 1972, dated 1976):

Experiment: activity of the starting insulins in I.U./mg
Conditions: starting insulin; crystallized insulin calculated on dry substance

In the case of “crystallized insulin: pure crystallized complete insulin used as starting material”, the activity is reported as at least 25 I.U./mg.
Substance “des-phenyl-alanine^B1 insulin [des-Phe^B1 insulin]” has an activity of 25 I.U./mg.
